Laboratory results: patent US20090285773A1, “Hepatitis C Virus Inhibitors” (Bristol-Myers Squibb Company, priority 2008, published 2009)

Molecular target: T1, human neutrophil elastase (HNE) (Homo sapiens, UniProt P08246)
T1 sequence (P08246 30-267): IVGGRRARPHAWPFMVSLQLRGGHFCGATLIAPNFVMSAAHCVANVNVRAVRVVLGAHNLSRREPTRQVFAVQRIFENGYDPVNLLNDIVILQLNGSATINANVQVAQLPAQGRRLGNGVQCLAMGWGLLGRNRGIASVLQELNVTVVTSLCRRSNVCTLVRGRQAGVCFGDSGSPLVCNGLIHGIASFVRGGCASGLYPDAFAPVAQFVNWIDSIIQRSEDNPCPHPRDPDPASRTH
Assay: Specificity assay, human neutrophil elastase
Assay type: biochemical
Details: read-out: HLE activity in the specificity assays
Protocol: The specificities of compounds of the present disclosure were determined against a variety of serine proteases: human neutrophil elastase (HNE), porcine pancreatic elastase (PPE) and human pancreatic chymotrypsin and one cysteine protease: human liver cathepsin B. In all cases a 96-well plate format protocol using a fluorometric Amino-Methyl-Coumarin (AMC) substrate specific for each enzyme was used as described previously (PCT Patent Application No. WO 00/09543) with some modifications to the serine protease assays. All enzymes were purchased from Sigma, EMDbiosciences while the substrates were from Bachem, Sigma and EMDbiosciences.
Compound concentrations varied from 100 to 0.4 μM depending on their potency. The enzyme assays were each initiated by addition of substrate to enzyme-inhibitor pre-incubated for 10 min at room temperature and hydrolysis to 15% conversion as measured on cytofluor. […]
The percentage of inhibition was calculated using the formula: […]

Question: Which IC50 does the source give for COc1ccc2c(O[C@@H]3C[C@H]4C(=O)N[C@]5(C(=O)NS(=O)(=O)C6CC6)C[C@H]5/C=C\CCCCC[C@H](Nc5ccc(OC)nc5)C(=O)N4C3)nccc2c1 (single isomer, unassigned) [Compound 1] here?
Answer: 1500 nM
